SMILES strings stand for the structures.

In one test the test system is leukotriene biosynthesis. The test can be described thus: Ionophore A23187-Induced Rat Pleural Inflammation Model (leukotriene biosynthesis inhibition in vivo). The settings on record: 1 h, male rats, dosed in 0.2% methocel one hour prior to intrapleural A23187, eicosanoids in pleural lavage. Here is the method:
Lipoxygenase Inhibition Determination in vivo
Inhibition of leukotriene biosynthesis in vivo was evaluated using the lonophore A32187-Induced Rat Plueral Inflammation Model. Pleural inflammation was induced in male rats following the method of Rao, et al (Rao, T. S., Currie, J. L., Shaffer, A. F., Isakson, P. C., (1993) Evaluation of 5-lipoxygenase Inhibitors, Zileuton, A-78773 and ICI D-2138 in an Ionophore (A-23187) Induced Pleural Inflammation Model in the Rat, Life Sciences, 53: 147 (1993)). Rats were dosed with experimental compounds in 0.2% methocel one hour prior to the intrapleural injection of the calcium ionophore, A23187. The rats where lightly anesthetized with Pentrane (Abbott Laboratories) and injected intrapleurally with 0.5 ml of 2% ethanol in injectable saline (Abbott Laboratories) containing 20 μg of A23187 (Cal BioChem-Novabiochem). Thirty minutes later the animals were euthanised and the pleural cavities lavaged with ice cold saline (Abbott Laboratories). The lavage fluid was then added to ice cold methanol (final methanol concentration 30%) to lyse cells and precipitate protein. Eicosanoids were determined by enzyme immunoassay by standard methods.

The test system of test [1] is leukotriene biosynthesis (LTB4) in human polymorphornuclear leukocytes (PMNL). Nature of the test: calcium ionophore-induced LTB4 in human PMNL (leukotriene biosynthesis inhibition in vitro). To be noted: calcium ionophore 8.3 μM, 15 min preincubation, LTB4 measured. Format: cell-based. Here is the method:
Lipoxygenase Inhibition Determination in vitro
Inhibition of leukotriene biosynthesis was evaluated in vitro using an assay involving calcium ionophore-induced LTB4 expressed in human polymorphornuclear leukocytes (PMNL). Human PMNL isolated from heparinized (20 USP units/mL) venous blood (25 mL) obtained from healthy volunteers was layered over an equal volume of Ficoll-Hypaque Mono-Poly Resolving Medium (ICN Flow, Costa Mesa, Calif.) and centrifugated at 400 × g for 40 minutes at 20° C. The PMNL was collected, erythrocytes lysed and washed 2× and suspended at 1.0×10^7 cells/ml in Earle's balanced salt solution with 17 mM Earle's HEPES. Aliquots of the cell suspension were preincubated with test compounds dissolved in DMSO (final concentration <2%) for 15 minutes and stimulated with calcium ionophore (final concentration 8.3 μM) for 10 minutes at 37° C. Incubations were stopped with the addition of two volumes of ice-cold methanol followed by centrifuging the cell suspensions at 4° C. for 10 minutes at 450 × g. The amount of LTB4 in the methanol extract was analyzed by enzyme-linked immunoassay or by HPLC analysis.

What is called ED50 is the midpoint of the dose-response relation. For orientation: IC50 means the concentration needed to halve the response being measured. Turning to `CC(SCC(=O)O)(c1ccc(OCc2ccc3ccccc3n2)cc1)c1ccc(OCc2ccc3ccccc3n2)cc1` [Example 1, 1,1-bis(4-(2-quinolylmethoxy)phenyl)eth-1-ylthioacetic acid], in the test on leukotriene biosynthesis, the ED50 came out at 1.1 mg/kg. The IC50 in test [1] worked out at 230 nM.

(Values after patent publication US5783586A, “Heteroarylmethoxyphenylthioalkyl carboxylates as inhibitors of leukotriene biosynthesis” (Abbott Laboratories, priority 1996, dated 1998).)
